Read-outs that look alike come from different tables or passages of the source.
Legend:
[1] = tested on: Mycosphaerella graminicola; Anamorph: Septoria tritici; Bayer Code SEPTTR; experiment: Leaf blotch of wheat, foliar fungicide treatment, one day protectant (1DP) or three day curative (3DC); assay type: in vivo, Septoria tritici on wheat plants (variety Yuma); conditions: Zymoseptoria tritici
[2] = tested on: Cercospora beticola; Bayer Code CERCBE; experiment: Leaf spot of sugar beets; assay type: in vivo, Cercospora beticola on sugar beets (variety HH-88); conditions: 24 h, % disease control rating, one day protectant; for pest or weed control at 25 ppm: read-out: CERCBE 1 DP 25 ppm; for pest or weed control at 75 ppm: read-out: CERCBE 1 DP 75 ppm
[3] = tested on: Venturia inaequalis; Bayer Code VENTIN; experiment: Apple scab; assay type: in vivo; conditions: 24 h, % disease control rating, one day protectant; for pest or weed control at 25 ppm: read-out: VENTIN 1 DP 25 ppm; for pest or weed control at 75 ppm: read-out: VENTIN 1 DP 75 ppm
[4] = 24 h, one day protectant (1DP), percent disease control rating, read-out: SETTTR 1DP 25 ppm
[5] = 24 h, one day protectant (1DP), percent disease control rating, read-out: SEPTTR 1DP 100 ppm
[6] = 72 h, three day curative (3DC), percent disease control rating, read-out: SEPTTR 3DC 25 ppm
[7] = 72 h, three day curative (3DC), percent disease control rating, read-out: SEPTTR 3DC 100 ppm
[8] = 24 h, one day protectant (1DP), rating of percent disease control, read-out: SETTTR 1DP 25 ppm
[9] = 24 h, one day protectant (1DP), rating of percent disease control, read-out: SEPTTR 1DP 100 ppm
[10] = 72 h, three day curative (3DC), rating of percent disease control, read-out: SEPTTR 3DC 25 ppm
[11] = 72 h, three day curative (3DC), rating of percent disease control, read-out: SEPTTR 3DC 100 ppm

## CC(Oc1ncc(F)c(NCOCc2ccccc2)n1)c1ccc(F)cc1 (stereo not shown) [Compound 121]
[1]; [4]
  pest or weed control at 25 ppm: 51 to 75%
[1]; [5]
  pest or weed control at 100 ppm: 76 to 100%
[1]; [6]
  pest or weed control at 25 ppm: 51 to 75%
[1]; [7]
  pest or weed control at 100 ppm: 76 to 100%
[2]
  pest or weed control at 25 ppm: 0 to 25%
  pest or weed control at 75 ppm: 0 to 25%
[3]
  pest or weed control at 25 ppm: 76 to 100%
  pest or weed control at 75 ppm: 26 to 50%

## CCCNC(=S)Nc1nc(OCc2ccn(C)n2)ncc1F [Compound 122]
[1]; [4]
  pest or weed control at 25 ppm: 0 to 25%
[1]; [5]
  pest or weed control at 100 ppm: 51 to 75%
[1]; [6]
  pest or weed control at 25 ppm: 26 to 50%
[1]; [7]
  pest or weed control at 100 ppm: 76 to 100%
[2]
  pest or weed control at 25 ppm: 26 to 50%
  pest or weed control at 75 ppm: 26 to 50%
[3]
  pest or weed control at 25 ppm: 76 to 100%
  pest or weed control at 75 ppm: 76 to 100%

## O=[N+]([O-])c1ccccc1SNc1nc(OCc2cc(C(F)(F)F)cc(C(F)(F)F)c2)ncc1F [Compound 125]
[1]; [4]
  pest or weed control at 25 ppm: 26 to 50%
[1]; [5]
  pest or weed control at 100 ppm: 26 to 50%
[1]; [6]
  pest or weed control at 25 ppm: 0 to 25%
[1]; [7]
  pest or weed control at 100 ppm: 0 to 25%
[2]
  pest or weed control at 25 ppm: 26 to 50%
  pest or weed control at 75 ppm: 26 to 50%
[3]
  pest or weed control at 25 ppm: 26 to 50%
  pest or weed control at 75 ppm: 76 to 100%

## Fc1ccc(COc2ccc(F)c(NC(=S)Nc3ccccc3F)c2)cc1 [Compound 135]
[1]; [4]
  pest or weed control at 25 ppm: 76 to 100%
[1]; [5]
  pest or weed control at 100 ppm: 76 to 100%
[1]; [6]
  pest or weed control at 25 ppm: 51 to 75%
[1]; [7]
  pest or weed control at 100 ppm: 76 to 100%
[2]
  pest or weed control at 25 ppm: 26 to 50%
  pest or weed control at 75 ppm: 26 to 50%
[3]
  pest or weed control at 25 ppm: 51 to 75%
  pest or weed control at 75 ppm: 51 to 75%

## CCCCCCOc1ncc(F)c(N)n1 [Compound 137]
[1]; [4]
  pest or weed control at 25 ppm: 26 to 50%
[1]; [5]
  pest or weed control at 100 ppm: 76 to 100%
[1]; [6]
  pest or weed control at 25 ppm: 26 to 50%
[1]; [7]
  pest or weed control at 100 ppm: 76 to 100%
[2]
  pest or weed control at 25 ppm: 0 to 25%
  pest or weed control at 75 ppm: 0 to 25%
[3]
  pest or weed control at 25 ppm: 0 to 25%
  pest or weed control at 75 ppm: 76 to 100%

## Nc1nc(OCc2nc(Cl)ccc2Cl)ncc1F [Compound 141]
[1]; [4]
  pest or weed control at 25 ppm: 0 to 25%
[1]; [5]
  pest or weed control at 100 ppm: 76 to 100%
[1]; [6]
  pest or weed control at 25 ppm: 51 to 75%
[1]; [7]
  pest or weed control at 100 ppm: 26 to 50%
[2]
  pest or weed control at 25 ppm: 0 to 25%
  pest or weed control at 75 ppm: 0 to 25%
[3]
  pest or weed control at 25 ppm: 0 to 25%
  pest or weed control at 75 ppm: 26 to 50%

## CNc1nc(OCc2ccc(OC)c(C(F)(F)F)c2)ncc1F [Compound 155]
[1]; [4]
  pest or weed control at 25 ppm: 51 to 75%
[1]; [5]
  pest or weed control at 100 ppm: 76 to 100%
[1]; [6]
  pest or weed control at 25 ppm: 76 to 100%
[1]; [7]
  pest or weed control at 100 ppm: 76 to 100%
[2]
  pest or weed control at 25 ppm: 0 to 25%
  pest or weed control at 75 ppm: 0 to 25%
[3]
  pest or weed control at 25 ppm: 26 to 50%
  pest or weed control at 75 ppm: 0 to 25%

## O=C(Nc1nc(OCc2cccc(F)c2)ncc1F)c1ccccc1 [Compound 158]
[1]; [4]
  pest or weed control at 25 ppm: 76 to 100%
[1]; [5]
  pest or weed control at 100 ppm: 76 to 100%
[1]; [6]
  pest or weed control at 25 ppm: 76 to 100%
[1]; [7]
  pest or weed control at 100 ppm: 76 to 100%
[2]
  pest or weed control at 25 ppm: 0 to 25%
  pest or weed control at 75 ppm: 0 to 25%
[3]
  pest or weed control at 25 ppm: 51 to 75%
  pest or weed control at 75 ppm: 51 to 75%

## CCCNC(=O)Nc1nc(OCc2cccc(C#N)c2)ncc1F [Compound 163]
[1]; [4]
  pest or weed control at 25 ppm: 0 to 25%
[1]; [5]
  pest or weed control at 100 ppm: 0 to 25%
[1]; [6]
  pest or weed control at 25 ppm: 0 to 25%
[1]; [7]
  pest or weed control at 100 ppm: 0 to 25%
[2]
  pest or weed control at 25 ppm: 0 to 25%
  pest or weed control at 75 ppm: 0 to 25%
[3]
  pest or weed control at 25 ppm: 0 to 25%
  pest or weed control at 75 ppm: 26 to 50%

## CN(Cc1ccccc1F)c1nc(OCc2ccc(F)cc2)ncc1F [Compound 164]
[1]; [4]
  pest or weed control at 25 ppm: 26 to 50%
[1]; [5]
  pest or weed control at 100 ppm: 51 to 75%
[1]; [6]
  pest or weed control at 25 ppm: 0 to 25%
[1]; [7]
  pest or weed control at 100 ppm: 51 to 75%
[2]
  pest or weed control at 25 ppm: 0 to 25%
  pest or weed control at 75 ppm: 0 to 25%
[3]
  pest or weed control at 25 ppm: 26 to 50%
  pest or weed control at 75 ppm: 51 to 75%

## Fc1ccccc1CNC(=S)Nc1nc(OCc2cccs2)ncc1F [Compound 169]
[1]; [4]
  pest or weed control at 25 ppm: 51 to 75%
[1]; [5]
  pest or weed control at 100 ppm: 76 to 100%
[1]; [6]
  pest or weed control at 25 ppm: 0 to 25%
[1]; [7]
  pest or weed control at 100 ppm: 0 to 25%
[2]
  pest or weed control at 25 ppm: 0 to 25%
  pest or weed control at 75 ppm: 0 to 25%
[3]
  pest or weed control at 25 ppm: 51 to 75%
  pest or weed control at 75 ppm: 26 to 50%

## O=C(Nc1nc(OCc2cccc(F)c2)ncc1F)OCc1ccc([N+](=O)[O-])cc1 [Compound 180]
[1]; [4]
  pest or weed control at 25 ppm: 0 to 25%
[1]; [5]
  pest or weed control at 100 ppm: 51 to 75%
[1]; [6]
  pest or weed control at 25 ppm: 0 to 25%
[1]; [7]
  pest or weed control at 100 ppm: 0 to 25%
[2]
  pest or weed control at 25 ppm: 0 to 25%
  pest or weed control at 75 ppm: 26 to 50%
[3]
  pest or weed control at 25 ppm: 26 to 50%
  pest or weed control at 75 ppm: 0 to 25%

## COc1ccc(Oc2ncc(F)c(/N=C/N(C)C)n2)cc1 [Compound 187]
[1]; [8]
  pest or weed control at 25 ppm: 0 to 25%
[1]; [9]
  pest or weed control at 100 ppm: 0 to 25%
[1]; [10]
  pest or weed control at 25 ppm: 0 to 25%
[1]; [11]
  pest or weed control at 100 ppm: 51 to 75%
[2]
  pest or weed control at 25 ppm: 0 to 25%
  pest or weed control at 75 ppm: 26 to 50%
[3]
  pest or weed control at 25 ppm: 51 to 75%
  pest or weed control at 75 ppm: 26 to 50%

## COc1c(C)cnc(COc2ncc(F)c(N)n2)c1C [Compound 189]
[1]; [8]
  pest or weed control at 25 ppm: 51 to 75%
[1]; [9]
  pest or weed control at 100 ppm: 76 to 100%
[1]; [10]
  pest or weed control at 25 ppm: 51 to 75%
[1]; [11]
  pest or weed control at 100 ppm: 76 to 100%
[2]
  pest or weed control at 25 ppm: 26 to 50%
  pest or weed control at 75 ppm: 0 to 25%
[3]
  pest or weed control at 25 ppm: 51 to 75%
  pest or weed control at 75 ppm: 51 to 75%

## CS(=O)(=O)c1ccc(COc2ncc(F)c(N)n2)cc1 [Compound 207]
[1]; [8]
  pest or weed control at 25 ppm: 0 to 25%
[1]; [9]
  pest or weed control at 100 ppm: 26 to 50%
[1]; [10]
  pest or weed control at 25 ppm: 0 to 25%
[1]; [11]
  pest or weed control at 100 ppm: 0 to 25%
[2]
  pest or weed control at 25 ppm: 0 to 25%
  pest or weed control at 75 ppm: 0 to 25%
[3]
  pest or weed control at 25 ppm: 0 to 25%
  pest or weed control at 75 ppm: 26 to 50%

## Cn1nc(C(F)(F)F)c(COc2ncc(F)c(N)n2)c1Cl [Compound 211]
[1]; [8]
  pest or weed control at 25 ppm: 76 to 100%
[1]; [9]
  pest or weed control at 100 ppm: 76 to 100%
[1]; [10]
  pest or weed control at 25 ppm: 76 to 100%
[1]; [11]
  pest or weed control at 100 ppm: 76 to 100%
[2]
  pest or weed control at 25 ppm: 0 to 25%
  pest or weed control at 75 ppm: 0 to 25%
[3]
  pest or weed control at 25 ppm: 26 to 50%
  pest or weed control at 75 ppm: 51 to 75%

## CC(=O)Nc1nc(OCCNc2ccccc2)ncc1F [Compound 214]
[1]; [8]
  pest or weed control at 25 ppm: 0 to 25%
[1]; [9]
  pest or weed control at 100 ppm: 0 to 25%
[1]; [10]
  pest or weed control at 25 ppm: 0 to 25%
[1]; [11]
  pest or weed control at 100 ppm: 0 to 25%
[2]
  pest or weed control at 25 ppm: 51 to 75%
  pest or weed control at 75 ppm: 51 to 75%
[3]
  pest or weed control at 25 ppm: 76 to 100%
  pest or weed control at 75 ppm: 76 to 100%

## O=C1OC(Nc2nc(OCc3ccc(F)cc3)ncc2F)c2ccccc21 (stereo not shown) [Compound 226]
[1]; [8]
  pest or weed control at 25 ppm: 76 to 100%
[1]; [9]
  pest or weed control at 100 ppm: 76 to 100%
[1]; [10]
  pest or weed control at 25 ppm: 76 to 100%
[1]; [11]
  pest or weed control at 100 ppm: 76 to 100%
[2]
  pest or weed control at 25 ppm: 0 to 25%
  pest or weed control at 75 ppm: 26 to 50%
[3]
  pest or weed control at 25 ppm: 26 to 50%
  pest or weed control at 75 ppm: 76 to 100%

## CONc1nc(OCc2ccc(F)cc2)ncc1F [Compound 233]
[1]; [8]
  pest or weed control at 25 ppm: 51 to 75%
[1]; [9]
  pest or weed control at 100 ppm: 76 to 100%
[1]; [10]
  pest or weed control at 25 ppm: 76 to 100%
[1]; [11]
  pest or weed control at 100 ppm: 76 to 100%
[2]
  pest or weed control at 25 ppm: 0 to 25%
  pest or weed control at 75 ppm: 0 to 25%
[3]
  pest or weed control at 25 ppm: 0 to 25%
  pest or weed control at 75 ppm: 51 to 75%

## CN(C)/C=N/c1nc(OCCNc2ccccc2)ncc1F [Compound 248]
[1]; [8]
  pest or weed control at 25 ppm: 0 to 25%
[1]; [9]
  pest or weed control at 100 ppm: 76 to 100%
[1]; [10]
  pest or weed control at 25 ppm: 76 to 100%
[1]; [11]
  pest or weed control at 100 ppm: 76 to 100%
[2]
  pest or weed control at 25 ppm: 0 to 25%
  pest or weed control at 75 ppm: 0 to 25%
[3]
  pest or weed control at 25 ppm: 0 to 25%
  pest or weed control at 75 ppm: 51 to 75%

From patent US9204653B2, “5-fluoro pyrimidine derivatives” (DOW AGROSCIENCES LLC, priority 2008, dated 2015)
